We go through 68 sequences from the supplement of paper PMC11208160.
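Further: IS621 bridge recombinase in Escherichia coli cells against a fixed T5 target plasmid.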

The data set can be described thus: recombinant UMI read abundance after kanamycin selection (control-corrected) (log10(CPM+1)); higher = more efficient recombination; extreme values may be limits of the assay; sequences stand for … in AGTGCAGAGAAAATCGGCCAGTTTTCTCTGCCTGCAGTCCGCATGCCGTGGGACCCCTTGGGTTCTAACCTGTTGCCTAGATTTATGCAGCGGACTGCCTTTCTCCCAAAGTGATAAACCGG…AGGTTGGTTTCACT; site = the 11-nt donor. The essentials:
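Pooled Escherichia coli screen of donor and donor-binding-loop pairs for the IS621 bridge recombinase. Each pair sits with a 12-nt UMI on a plasmid carrying a promoterless kanamycin gene. The library was co-electroporated with a target plasmid encoding a fixed target and T7-inducible recombinase, then plated with IPTG (0.07 mM) plus kanamycin, or unselected, each in two replicates. Recombinant UMIs were PCR-amplified across the donor–target junction and sequenced. Counts became CPM, averaged over replicates, scaled by control-derived factors and reported as log10(CPM+1).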
“TAAAGTCCATGGACCGGTTTTCCCGGTAATCCGTATTTGTA (site TACAGTCCTTA)”: the “recombinant UMI read abundance (log10)” value was 0.
Turning to “TAAAGTCCATGGACCGGTTTTCCCGGTAATCCGTATTTGTA (site TAGAGTCCTTA)”, the “recombinant UMI read abundance (log10)” value is 0.358.
On to “TAAAGTCCATGGACCGGTTTTCCCGGTAATCCGTATTTGTA (site TATAGTCCTTA)”, for which the “recombinant UMI read abundance (log10)” value turned out to be 0.0492.
“TAAAGTCCATGGACCGGTTTTCCCGGTAATCCGTATTTGTA (site TCAAGTCCTTA)”: the “recombinant UMI read abundance (log10)” value was 0.0268.
With “TAAAGTCCATGGACCGGTTTTCCCGGTAATCCGTATTTGTA (site TGAAGTCCTTA)” the figure was 0.00382; with “TAAAGTCCATGGACCGGTTTTCCCGGTAATCCGTATTTGTA (site TTAAGTCCTTA)”, 0.671; with “TAAAGTGCATGGACCGGTTTTCCCGGTAATCCGTATTTGTA (site TAAAGTACTTA)”, 1.36.
For “TAAAGTGCATGGACCGGTTTTCCCGGTAATCCGTATTTGTA (site TAAAGTCCTTA)”, the “recombinant UMI read abundance (log10)” value came out at 0.72.
As to “TAAAGTGCATGGACCGGTTTTCCCGGTAATCCGTATTTGTA (site TAAAGTGCTTA)”, the “recombinant UMI read abundance (log10)” value was found to be 2.22.
Regarding “TAAAGTGCATGGACCGGTTTTCCCGGTAATCCGTATTTGTA (site TAAAGTTCTTA)”, the “recombinant UMI read abundance (log10)” value came out at 0.
“TAAATGACATGGACCGGTTTTCCCGGTAATCCGTATTTGGA (site TAAATGACTTC)”: the “recombinant UMI read abundance (log10)” value came out at 1.23.
With “TAAATTCCATGGACCGGTTTTCCCGGTAATCCGTATTTGGG (site TAAATTCCTCC)”, the “recombinant UMI read abundance (log10)” value was determined as 0.
As to “TAAATTCCATGGACCGGTTTTCCCGGTAATCCGTATTTGTA (site TAAAATCCTTA)”, the “recombinant UMI read abundance (log10)” value came out at 0.00321.
With “TAAATTCCATGGACCGGTTTTCCCGGTAATCCGTATTTGTA (site TAAACTCCTTA)” the figure was 0.00609.
Then “TAAATTCCATGGACCGGTTTTCCCGGTAATCCGTATTTGTA (site TAAAGTCCTTA)”, with 0.471; and “TAAATTCCATGGACCGGTTTTCCCGGTAATCCGTATTTGTA (site TAAATTCCTTA)”, with 0.558.
With “TAACAGGCATGGACCGGTTTTCCCGGTAATCCGTATTTGTT (site TAACAGGCTAA)” the figure was 1.1; with “TAACCACCATGGACCGGTTTTCCCGGTAATCCGTATTTGAT (site TAACCACCTAT)”, 0.0138.
With “TAACCCGCATGGACCGGTTTTCCCGGTAATCCGTATTTGTG (site TAACCCGCTCA)”, the “recombinant UMI read abundance (log10)” value was 0.00831.
Regarding “TAACGTCCATGGACCGGTTTTCCCGGTAATCCGTATTTGTA (site TAAAGTCCTTA)”, the “recombinant UMI read abundance (log10)” value came out at 0.571.
In the case of “TAACGTCCATGGACCGGTTTTCCCGGTAATCCGTATTTGTA (site TAACGTCCTTA)”, the “recombinant UMI read abundance (log10)” value came to 0.935.
With “TAACGTCCATGGACCGGTTTTCCCGGTAATCCGTATTTGTA (site TAAGGTCCTTA)” the figure was 0.0133; with “TAACGTCCATGGACCGGTTTTCCCGGTAATCCGTATTTGTA (site TAATGTCCTTA)”, 0.00898.
On to “TAAGACACATGGACCGGTTTTCCCGGTAATCCGTATTTGTT (site TAAGACACTAA)”, for which the “recombinant UMI read abundance (log10)” value is 1.94.
For “TAAGAGACATGGACCGGTTTTCCCGGTAATCCGTATTTGCG (site TAAGAGACTCG)”, the “recombinant UMI read abundance (log10)” value came out at 2.41.
As to “TAAGAGACATGGACCGGTTTTCCCGGTAATCCGTATTTGCG (site TCAGAGACTCG)”, the “recombinant UMI read abundance (log10)” value came out at 0.896.
On to “TAAGAGACATGGACCGGTTTTCCCGGTAATCCGTATTTGCG (site TGAGAGACTCG)”, for which the “recombinant UMI read abundance (log10)” value came to 0.483.
With “TAAGAGACATGGACCGGTTTTCCCGGTAATCCGTATTTGCG (site TTAGAGACTCG)” the figure was 1.14.
Consider “TAAGATACATGGACCGGTTTTCCCGGTAATCCGTATTTGCT (site TAAGATACTAG)”, for which the “recombinant UMI read abundance (log10)” value is 2.11.
Regarding “TAAGATGCATGGACCGGTTTTCCCGGTAATCCGTATTTGGG (site ATCCTCTCTGG)”, the “recombinant UMI read abundance (log10)” value worked out at 0.
As to “TAAGGAGCATGGACCGGTTTTCCCGGTAATCCGTATTTGGG (site TAAAGAGCTCC)”, the “recombinant UMI read abundance (log10)” value came out at 0.628.
With “TAAGGAGCATGGACCGGTTTTCCCGGTAATCCGTATTTGGG (site TAACGAGCTCC)” the figure was 0; with “TAAGGAGCATGGACCGGTTTTCCCGGTAATCCGTATTTGGG (site TAAGGAGCTCC)”, 0.164.
With “TAAGGAGCATGGACCGGTTTTCCCGGTAATCCGTATTTGGG (site TAATGAGCTCC)” the figure was 0.0199; with “TAAGTCACATGGACCGGTTTTCCCGGTAATCCGTATTTGAC (site TAAGTCACTGT)”, 2.35; with “TAAGTTTCATGGACCGGTTTTCCCGGTAATCCGTATTTGGA (site TAAGTTTCTTC)”, 2.13.
Take “TAATAAGCATGGACCGGTTTTCCCGGTAATCCGTATTTGGG (site TAATAAGCTCC)”: the “recombinant UMI read abundance (log10)” value was 0.013.
For the sequence “TAATAAGCATGGACCGGTTTTCCCGGTAATCCGTATTTGGG (site TAATCAGCTCC)”, the “recombinant UMI read abundance (log10)” value was found to be 0.012.
For “TAATAAGCATGGACCGGTTTTCCCGGTAATCCGTATTTGGG (site TAATGAGCTCC)”, the “recombinant UMI read abundance (log10)” value was found to be 0.00879.
Take “TAATAAGCATGGACCGGTTTTCCCGGTAATCCGTATTTGGG (site TAATTAGCTCC)”: the “recombinant UMI read abundance (log10)” value stood at 0.507.
As to “TAATCAGCATGGACCGGTTTTCCCGGTAATCCGTATTTGTC (site TAATCAGCTGA)”, the “recombinant UMI read abundance (log10)” value was 1.93.
With “TAATGAGCATGGACCGGTTTTCCCGGTAATCCGTATTTGAG (site TAATGAGCTCA)” the figure was 0.196.
Regarding “TAATGAGCATGGACCGGTTTTCCCGGTAATCCGTATTTGAG (site TAATGAGCTCC)”, the “recombinant UMI read abundance (log10)” value was 0.104.
In the case of “TAATGAGCATGGACCGGTTTTCCCGGTAATCCGTATTTGAG (site TAATGAGCTCG)”, the “recombinant UMI read abundance (log10)” value turned out to be 0.341.
“TAATGAGCATGGACCGGTTTTCCCGGTAATCCGTATTTGAG (site TAATGAGCTCT)”: the “recombinant UMI read abundance (log10)” value amounted to 1.33.
Regarding “TAATGAGCATGGACCGGTTTTCCCGGTAATCCGTATTTGCG (site TAATGAGCTCA)”, the “recombinant UMI read abundance (log10)” value is 0.385.
On to “TAATGAGCATGGACCGGTTTTCCCGGTAATCCGTATTTGCG (site TAATGAGCTCC)”, for which the “recombinant UMI read abundance (log10)” value was found to be 0.00423.
Consider “TAATGAGCATGGACCGGTTTTCCCGGTAATCCGTATTTGCG (site TAATGAGCTCG)”, for which the “recombinant UMI read abundance (log10)” value turned out to be 1.58.
Turning to “TAATGAGCATGGACCGGTTTTCCCGGTAATCCGTATTTGCG (site TAATGAGCTCT)”, the “recombinant UMI read abundance (log10)” value came out at 0.626.
With “TAATGAGCATGGACCGGTTTTCCCGGTAATCCGTATTTGGG (site AAATGAGCTCC)” the figure was 0.117; with “TAATGAGCATGGACCGGTTTTCCCGGTAATCCGTATTTGGG (site CAATGAGCTCC)”, 0.0721.
With “TAATGAGCATGGACCGGTTTTCCCGGTAATCCGTATTTGGG (site GAATGAGCTCC)” the figure was 0.00249; with “TAATGAGCATGGACCGGTTTTCCCGGTAATCCGTATTTGGG (site TAAAGAGCTCC)”, 0.00438; with “TAATGAGCATGGACCGGTTTTCCCGGTAATCCGTATTTGGG (site TAACGAGCTCC)”, 0.0128.
For the sequence “TAATGAGCATGGACCGGTTTTCCCGGTAATCCGTATTTGGG (site TAAGGAGCTCC)”, the “recombinant UMI read abundance (log10)” value amounted to 0.0167.
Regarding “TAATGAGCATGGACCGGTTTTCCCGGTAATCCGTATTTGGG (site TAATAAGCTCC)”, the “recombinant UMI read abundance (log10)” value came to 0.0171.
On to “TAATGAGCATGGACCGGTTTTCCCGGTAATCCGTATTTGGG (site TAATCAGCTCC)”, for which the “recombinant UMI read abundance (log10)” value came to 0.0102.
With “TAATGAGCATGGACCGGTTTTCCCGGTAATCCGTATTTGGG (site TAATGAACTCC)” the figure was 0.0101; with “TAATGAGCATGGACCGGTTTTCCCGGTAATCCGTATTTGGG (site TAATGACCTCC)”, 0.00784; with “TAATGAGCATGGACCGGTTTTCCCGGTAATCCGTATTTGGG (site TAATGAGCTAC)”, 0.0203.
With “TAATGAGCATGGACCGGTTTTCCCGGTAATCCGTATTTGGG (site TAATGAGCTCA)” the figure was 0.00405; with “TAATGAGCATGGACCGGTTTTCCCGGTAATCCGTATTTGGG (site TAATGAGCTCC)”, 0.304; with “TAATGAGCATGGACCGGTTTTCCCGGTAATCCGTATTTGGG (site TAATGAGCTCG)”, 0.0101.
Regarding “TAATGAGCATGGACCGGTTTTCCCGGTAATCCGTATTTGGG (site TAATGAGCTCT)”, the “recombinant UMI read abundance (log10)” value turned out to be 0.0248.
“TAATGAGCATGGACCGGTTTTCCCGGTAATCCGTATTTGGG (site TAATGAGCTGC)”: the “recombinant UMI read abundance (log10)” value amounted to 0.
As for “TAATGAGCATGGACCGGTTTTCCCGGTAATCCGTATTTGGG (site TAATGAGCTTC)”, the “recombinant UMI read abundance (log10)” value is 0.0139.
As to “TAATGAGCATGGACCGGTTTTCCCGGTAATCCGTATTTGGG (site TAATGATCTCC)”, the “recombinant UMI read abundance (log10)” value was 0.
Consider “TAATGAGCATGGACCGGTTTTCCCGGTAATCCGTATTTGGG (site TAATGCGCTCC)”, for which the “recombinant UMI read abundance (log10)” value was 0.00982.
